What was measured:
CYP2C9 = target: T1, CYP2C9 (Homo sapiens, UniProt P11712); assay: Cytochrome P450 inhibition, CYP2C9; format: in vitro ADME; details: human liver microsomes, probe tolbutamide
T1 construct: from tissue; host or cells: human liver microsomes
Method: This provided a dose of 2 mg free base material/kg when Cytochrome p450 inhibition (5 isoform iC50 administered iv in a 5 mL/kg dosing volume. determination) mouse terminal ip pK study ADME-Tox Cytochrome P450 inhibition of Compound MC2884 was given ip at a dose of 2 mg/kg MC2884 using human liver microsomes as an estimation to a group of 24 normally fed male CD1 mice in a 10 mL/ of in vitro metabolism. kg injection volume. Terminal blood samples (> 230 μL) MC2884 (0.1 μM–25 μM) was incubated with were taken under CO2 from groups of 3 mice at each of 8 human liver microsomes and NADPH in the presence time-points post dose (0.083, 0.25, 0.5, 1, 2, 4, 8 and 24 h) of a cytochrome P450 isoform-specific probe substrate. and placed into heparinized tubes. […]
All samples were stored at −20° C measuring the formation of a fluorescent metabolite. […]
Cyp2C19 inhibition (0.1 mg/mL) and NADPH (1 mM) in the presence of the probe substrate midazolam (2.5 μM) for 5 min at Six test compound samples at concentrations 37° C. […] For the CYP1A incubations, the reactions microsomes (0.5 mg/mL) and NADPH (1 mM) in the were terminated by methanol, and the formation of the presence of the probe substrate mephenytoin (25 μM) metabolite, resorufin, was monitored by fluorescence for 60 min at 37° C. […]

HCT116 colon carcinoma [1] = assay: HCT116 colon carcinoma xenograft, tumor volume; format: in vivo, mice; details: 10 mg/Kg i.p., day 19
Method: (§1) HCT116 cell line was grown in McCoy’s medium, supplemented with 10% inactivated FBS, 2 mM glutamine and standard concentration of antibiotics. 7- to 8-week-old male CD1 nude athymic mice were purchased from Charles River and under pathogen-free conditions in accordance with European Directives no. 2010/63 and with Italian D.L. 26/2014. Mice were injected subcutaneously into the right flank with 4 × 10^6 of HCT116 cells; tumor volume (mm^3) was evaluated three times a week by caliper using the formula Dmax x dmin^^2/2, where ‘d’ and ‘D’ are the shortest and the longest diameters, respectively. For all experiments, mice were randomly divided (n = 7) and intra-peritoneal injected by day five every day with: vehicle sesame oil/DMSO 6%; MC2884 10 mg/Kg in sesame oil/DMSO 6%. Mice were sacrificed after 20 days of drug treatment and tumors explanted for immunohistochemical analyses. For HCT116-DKO colon cancer, 6 × 10^6 cells were injected.

HCT116 colon carcinoma [2] = assay: Immunohistochemistry and TUNEL of HCT116 xenograft tumors; format: in vivo, mice; details: end of treatment, 10 mg/Kg
Method: as §1
The biopsy specimens were fixed in 10% buffered-formalin and paraffin-embedded. Sections of […] were stained with haematoxylin-eosin, and haematoxylin-van Gieson. For immunohistochemistry, specimens were incubated in a microwave oven for 15 min in 10 mM buffered citrate pH 6.0 followed by the immunohistochemical procedure for Ki67 (Santa Cruz Biotechnology Inc., CA, USA), H3K27me3, H3K9/14ac (Diagenode). The conventional avidin-biotin complex procedure was applied according to manufacturer’s protocol (Dako Carpinteria, CA, USA) and incubated with secondary antibody. […] Slides were cover-slipped with a xylene-based mounting medium. Staining was scored as percentage of positive nuclei per high power field 10 × 40. Negative controls for each tissue section were performed omitting the primary antibody. Positive controls included in each experiment consisted of tissue previously shown to express the antigen of interest. TUNEL reaction was performed using the peroxidase-based Apoptag kit (Oncor, Gaithersburg, MD, US). TUNEL positive cells were detected with DAB and H2O2 according to the supplier’s instructions. The experiments were repeated on different sections for each specimen (two to four). For all immunohistochemical markers, 100 random fields (250×) per section were analysed (12.5 mm^2). Mann–Whitney and Wilcoxon tests were used to assess the relationship between ordinal data. Two-tailed P value was considered significant when ≤ 0.05. SPSS software (version 10.00, SPSS, Chicago, IL, USA) was used for statistical analysis.

EZH2 = target: T2, EZH2 (Homo sapiens, UniProt Q15910); assay: EZH2 methyltransferase in vitro assay; format: biochemical
T2 construct: purchased BPS Biosciences
T2 sequence (Q15910 whole entry): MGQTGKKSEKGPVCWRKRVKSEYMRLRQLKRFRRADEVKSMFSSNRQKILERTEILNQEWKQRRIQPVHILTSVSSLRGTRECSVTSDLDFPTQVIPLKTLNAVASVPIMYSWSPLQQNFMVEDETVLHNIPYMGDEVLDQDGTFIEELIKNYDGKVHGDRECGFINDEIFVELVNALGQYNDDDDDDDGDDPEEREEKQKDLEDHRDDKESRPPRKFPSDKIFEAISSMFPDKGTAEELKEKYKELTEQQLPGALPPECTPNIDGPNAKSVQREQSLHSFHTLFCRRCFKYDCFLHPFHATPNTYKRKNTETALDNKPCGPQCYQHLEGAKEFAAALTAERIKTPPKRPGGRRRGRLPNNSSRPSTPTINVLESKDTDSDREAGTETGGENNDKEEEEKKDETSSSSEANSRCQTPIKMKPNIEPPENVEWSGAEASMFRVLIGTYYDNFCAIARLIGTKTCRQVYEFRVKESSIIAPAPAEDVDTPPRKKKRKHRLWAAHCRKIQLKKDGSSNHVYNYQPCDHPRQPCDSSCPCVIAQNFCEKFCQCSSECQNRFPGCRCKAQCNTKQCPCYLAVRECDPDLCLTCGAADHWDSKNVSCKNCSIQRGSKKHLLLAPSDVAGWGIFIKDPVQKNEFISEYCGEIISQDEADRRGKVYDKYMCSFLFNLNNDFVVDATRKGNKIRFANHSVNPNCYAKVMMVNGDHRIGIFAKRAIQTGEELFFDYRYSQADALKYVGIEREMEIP
T2 sequence (O75530 whole entry partner): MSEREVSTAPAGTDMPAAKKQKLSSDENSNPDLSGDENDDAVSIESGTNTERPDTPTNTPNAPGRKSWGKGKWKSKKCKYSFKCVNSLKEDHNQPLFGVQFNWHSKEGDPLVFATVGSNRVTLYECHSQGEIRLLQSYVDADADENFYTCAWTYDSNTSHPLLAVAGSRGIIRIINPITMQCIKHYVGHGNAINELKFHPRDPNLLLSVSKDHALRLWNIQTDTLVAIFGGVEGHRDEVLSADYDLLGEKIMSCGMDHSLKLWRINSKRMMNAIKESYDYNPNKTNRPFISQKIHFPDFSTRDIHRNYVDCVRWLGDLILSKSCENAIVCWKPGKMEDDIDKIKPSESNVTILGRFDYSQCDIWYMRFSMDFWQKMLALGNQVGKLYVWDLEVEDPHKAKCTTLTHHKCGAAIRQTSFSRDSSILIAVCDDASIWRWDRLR
T2 sequence (Q15022 whole entry partner): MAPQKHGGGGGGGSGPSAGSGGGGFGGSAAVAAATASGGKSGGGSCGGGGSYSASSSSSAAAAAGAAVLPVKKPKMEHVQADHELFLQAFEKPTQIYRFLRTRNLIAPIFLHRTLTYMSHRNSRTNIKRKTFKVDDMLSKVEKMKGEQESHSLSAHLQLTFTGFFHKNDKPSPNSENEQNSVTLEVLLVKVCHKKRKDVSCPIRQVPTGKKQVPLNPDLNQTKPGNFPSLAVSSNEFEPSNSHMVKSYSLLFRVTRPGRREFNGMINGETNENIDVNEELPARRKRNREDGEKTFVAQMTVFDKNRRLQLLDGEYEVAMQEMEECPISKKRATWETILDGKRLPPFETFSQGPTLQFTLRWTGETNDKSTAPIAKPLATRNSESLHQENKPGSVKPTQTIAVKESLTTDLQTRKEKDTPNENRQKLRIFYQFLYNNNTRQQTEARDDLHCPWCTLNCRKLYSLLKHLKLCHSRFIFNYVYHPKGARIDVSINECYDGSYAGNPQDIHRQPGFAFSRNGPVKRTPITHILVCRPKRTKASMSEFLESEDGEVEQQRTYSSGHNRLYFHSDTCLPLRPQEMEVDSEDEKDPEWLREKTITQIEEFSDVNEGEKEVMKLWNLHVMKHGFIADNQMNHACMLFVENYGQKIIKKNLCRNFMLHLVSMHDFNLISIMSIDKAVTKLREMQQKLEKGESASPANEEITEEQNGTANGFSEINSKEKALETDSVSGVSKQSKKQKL
T2 sequence (Q09028 whole entry partner): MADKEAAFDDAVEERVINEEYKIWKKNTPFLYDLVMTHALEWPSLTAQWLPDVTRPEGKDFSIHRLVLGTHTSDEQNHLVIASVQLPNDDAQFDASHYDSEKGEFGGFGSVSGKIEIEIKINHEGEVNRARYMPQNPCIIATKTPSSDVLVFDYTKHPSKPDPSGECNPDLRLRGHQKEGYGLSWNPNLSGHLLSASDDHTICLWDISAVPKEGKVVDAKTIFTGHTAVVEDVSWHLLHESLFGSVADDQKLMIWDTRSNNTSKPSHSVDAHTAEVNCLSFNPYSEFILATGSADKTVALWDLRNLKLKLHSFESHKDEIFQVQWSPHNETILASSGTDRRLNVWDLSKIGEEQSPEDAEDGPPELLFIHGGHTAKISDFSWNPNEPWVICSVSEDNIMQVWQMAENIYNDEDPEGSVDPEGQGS
T2 sequence (Q6ZN18 whole entry partner): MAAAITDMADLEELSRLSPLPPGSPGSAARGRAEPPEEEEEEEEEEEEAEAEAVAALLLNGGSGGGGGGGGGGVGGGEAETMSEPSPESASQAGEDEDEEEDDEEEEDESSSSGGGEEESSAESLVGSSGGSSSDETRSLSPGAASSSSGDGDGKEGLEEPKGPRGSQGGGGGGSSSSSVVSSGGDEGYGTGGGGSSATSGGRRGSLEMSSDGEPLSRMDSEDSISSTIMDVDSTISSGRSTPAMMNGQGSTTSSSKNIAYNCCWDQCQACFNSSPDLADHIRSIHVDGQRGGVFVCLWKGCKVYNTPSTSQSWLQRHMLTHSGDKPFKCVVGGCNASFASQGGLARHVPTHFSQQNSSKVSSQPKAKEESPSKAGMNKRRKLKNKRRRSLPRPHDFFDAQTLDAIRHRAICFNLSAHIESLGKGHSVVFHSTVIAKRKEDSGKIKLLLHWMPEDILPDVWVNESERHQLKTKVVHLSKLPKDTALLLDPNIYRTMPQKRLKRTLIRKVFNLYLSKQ
Method: EZH2 assays were performed following BPS Biosciences instructions and as previously described.

[3] = system: endometrial stromal cells; assay: Cytotoxic effect on immortalized non-cancer endometrial stromal cells; format: cell-based
[4] = scored as percentage of positive nuclei

T1 sequence (P11712 whole entry): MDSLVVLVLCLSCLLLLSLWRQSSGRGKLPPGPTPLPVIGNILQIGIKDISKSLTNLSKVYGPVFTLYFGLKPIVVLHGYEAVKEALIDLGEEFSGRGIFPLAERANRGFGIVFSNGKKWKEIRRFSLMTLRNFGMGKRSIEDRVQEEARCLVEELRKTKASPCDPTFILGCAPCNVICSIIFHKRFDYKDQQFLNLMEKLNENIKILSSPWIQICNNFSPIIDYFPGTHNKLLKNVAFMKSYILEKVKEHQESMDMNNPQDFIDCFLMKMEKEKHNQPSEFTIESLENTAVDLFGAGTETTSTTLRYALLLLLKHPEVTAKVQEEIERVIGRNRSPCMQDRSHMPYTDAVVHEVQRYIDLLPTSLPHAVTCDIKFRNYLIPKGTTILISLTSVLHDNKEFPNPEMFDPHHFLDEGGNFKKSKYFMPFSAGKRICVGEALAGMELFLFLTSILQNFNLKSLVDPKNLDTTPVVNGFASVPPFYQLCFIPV

O=C1/C(=C/c2cccc(Br)c2)CN(Cc2ccccc2)C/C1=C\c1cccc(Br)c1 [MC2884]
IC50 (CYP2C9): > 25 µM
tumor volume reduction versus untreated mice (HCT116 colon carcinoma [1]): 90%
apoptotic index (TUNEL) (HCT116 colon carcinoma [2]): 35±4
H3 K9/14ac (HCT116 colon carcinoma [2]; [4]): 5±0.2
H3 K27me3 (HCT116 colon carcinoma [2]; [4]): 19±2
proliferation index (Ki67) (HCT116 colon carcinoma [2]; [4]): 6±0.5
inhibition at 5 µM (EZH2; 5 μM): ~40%
inhibition at 25 µM (EZH2; 25 μM): ~80%
cytotoxic effect on endometrial stromal cells [3]: insensitive

Source: PMC5986654, “Combined HAT/EZH2 modulation leads to cancer-selective cell death” (Oncotarget, 2018)
